Data taken from patent US20070264199A1, “Magnetic nanoparticle composition and methods for using the same” (priority 2005, published 2007).
Where two headings read alike, the source gives them in different places.

Experiments:
[1] = Drug loading in magnetic nanoparticles; assay type: physicochemical; conditions: for Total Drug Loading (Mean ± SEM): total drug added 10.0 % w/w, n = 2 or 3
Procedure: For incorporation in nanoparticles, hydrochloride salt of the drug (DOX.HCl) was converted to water-insoluble base (DOX) using established methods (Yolles, et al. (1978) Acta Pharm. Suec. 15:382-388). […] Stirring was continued overnight (˜16 hours) to allow partitioning of the drug into the oleic acid shell surrounding iron-oxide nanoparticles. Drug-loaded nanoparticles were separated from the unentrapped drug using a magnet (12200 Gauss; Edmund Scientific, Tonawanda, N.Y.). Nanoparticles were washed twice by re-suspending in distilled water and separated using a magnetic field. […] For drug extraction, 2 mL of 12.5% volume/volume methanolic solution in chloroform was added to the dried sample. The samples were shaken for 24 hours (Environ shaker, model no. 3527; Lab-Line Instruments, Melrose Park, Ill.). Since DOX has greater solubility in this combination of solvents than in methanol or chloroform alone, it was used for the extraction. Nanoparticles were centrifuged for 10 minutes at 16,000 g using an EPPENDORF® microcentrifuge (5417R; Eppendorf-Netheler-Hinz-GmbH, Hamburg, Germany). […] VARIAN® Inc., Walnut Creek, Calif.) at λex=485 nm and λem=591 nm. A standard plot was prepared under identical conditions to calculate the amount of drug loaded in the nanoparticles. There was no further increase in the amount of drug extracted when nanoparticles were kept for extraction for more than 24 hours. […] The cap was removed and ethanol was allowed to evaporate overnight. Magnetite nanoparticles were separated from the free drug using a magnetic field and particles were washed two times with distilled water.

MCF-7 cells = test: Confocal laser scanning microscopy of drug uptake and localization; assay type: cell-based; conditions: 2 hours of incubation
Procedure: MCF-7 cells were seeded in Bioptechs plates (Bioptechs, Butler, Pa.) at 50,000 cells/plate in 1 mL serum-containing medium 24 hours prior to the experiment. A dispersion of drug-loaded or void nanoparticles and drug solution (10 μM) were prepared in cell-culture medium as described herein. […] Cells were washed three times with PBS before imaging them under a confocal microscope (Zeiss Confocal microscope LSM410 equipped with argon-krypton laser; Zeiss, Thornwood, N.Y.) at λex=488 nm and a long-pass filter with a cut-on filter of 515 nm for detecting the emission light.

[2] = Antiproliferative IC50 of paclitaxel, doxorubicin and combination, in solution or in magnetic nanoparticles

SMILES	Doxorubicin Loaded ([1]; added doxorubicin 5.0 % w/w + paclitaxel 5.0 % w/w)	Doxorubicin Loaded ([1]; added doxorubicin 10.0 % w/w, paclitaxel 0.0)	Total Drug Loading (Mean ± SEM) [1]	intracellular localization of drug (MCF-7 cells)	IC50 ([2]; read-out: IC50 Nanoparticle)	IC50 ([2]; read-out: IC50 Soluble)	Paclitaxel Loaded ([1]; added paclitaxel 5.0 % w/w + doxorubicin 5.0 % w/w)	Paclitaxel Loaded ([1]; added paclitaxel 10.0 % w/w, doxorubicin 0.0)
COc1cccc2c1C(=O)c1c(O)c3c(c(O)c1C2=O)C[C@@](O)(C(=O)CO)C[C@@H]3O[C@H]1C[C@H](N)[C@H](O)[C@H](C)O1 [Doxorubicin]	3.7 % w/w	8.2 % w/w	8.2 % w/w	nuclear localization	0.795 ± 0.177 µg/mL	0.103 ± 0.0178 µg/mL		
CC(=O)O[C@H]1C(=O)[C@@]2(C)[C@H]([C@H](OC(=O)c3ccccc3)[C@]3(O)C[C@H](OC(=O)[C@H](O)[C@@H](NC(=O)c4ccccc4)c4ccccc4)C(C)=C1C3(C)C)[C@]1(OC(C)=O)CO[C@@H]1C[C@@H]2O [Paclitaxel]			9.5 % w/w		0.0106 ± 0.0006 µg/mL	0.0098 ± 0.0005 µg/mL	4.8 % w/w	9.5 % w/w
